Data: PubChem BioAssay (NCI)
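96-well plates; 48 h exposure; 5 concentrations. Endpoints by linear interpolation between flanking doses. Not reached: highest tested concentration assigned. Abbreviation: GI50, concentration required for 50% inhibition of growth. TGI: concentration producing complete growth inhibition.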

Tests used:
Assay in all cases: NCI-60 cell line screen, 48 h
OVCAR-3 ovarian = system: OVCAR-3 ovarian
LOX IMVI melanoma = system: LOX IMVI melanoma
HCT-15 colon = system: HCT-15 colon
TK-10 renal = system: TK-10 renal
RPMI-8226 leukemia = system: RPMI-8226 leukemia
K-562 leukemia = system: K-562 leukemia
A549 NSCLC = system: A549 NSCLC
MCF7 breast = system: MCF7 breast
OVCAR-8 ovarian = system: OVCAR-8 ovarian
OVCAR-4 ovarian = system: OVCAR-4 ovarian
M14 melanoma = system: M14 melanoma
BT-549 breast = system: BT-549 breast
HS 578T breast = system: HS 578T breast
COLO 205 colon = system: COLO 205 colon
NCI/ADR-RES ovarian = system: NCI/ADR-RES ovarian
A498 renal = system: A498 renal
SR leukemia = system: SR leukemia
SW-620 colon = system: SW-620 colon
SF-268 CNS = system: SF-268 CNS
MDA-MB-435 = system: MDA-MB-435
CCRF-CEM leukemia = system: CCRF-CEM leukemia
OVCAR-5 ovarian = system: OVCAR-5 ovarian
MALME-3M melanoma = system: MALME-3M melanoma
SF-295 CNS = system: SF-295 CNS
HCT-116 colon = system: HCT-116 colon
SK-MEL-28 melanoma = system: SK-MEL-28 melanoma
HCC-2998 colon = system: HCC-2998 colon
SNB-19 CNS = system: SNB-19 CNS
UACC-257 melanoma = system: UACC-257 melanoma
CAKI-1 renal = system: CAKI-1 renal
SNB-75 CNS = system: SNB-75 CNS
SN12C renal = system: SN12C renal
ACHN renal = system: ACHN renal
IGROV1 ovarian = system: IGROV1 ovarian
NCI-H226 lung = system: NCI-H226 lung
MDA-MB-231 breast = system: MDA-MB-231 breast
NCI-H460 lung = system: NCI-H460 lung
NCI-H522 lung = system: NCI-H522 lung
RXF 393 renal = system: RXF 393 renal
786-0 renal = system: 786-0 renal
SK-MEL-5 melanoma = system: SK-MEL-5 melanoma
PC-3 prostate = system: PC-3 prostate
HOP-92 NSCLC = system: HOP-92 NSCLC
EKVX NSCLC = system: EKVX NSCLC
MOLT-4 leukemia = system: MOLT-4 leukemia
KM12 colon = system: KM12 colon
U251 CNS = system: U251 CNS
UACC-62 melanoma = system: UACC-62 melanoma
SF-539 CNS = system: SF-539 CNS
SK-OV-3 ovarian = system: SK-OV-3 ovarian
SK-MEL-2 melanoma = system: SK-MEL-2 melanoma
UO-31 renal = system: UO-31 renal
NCI-H23 lung = system: NCI-H23 lung
HL-60(TB) leukemia = system: HL-60(TB) leukemia
T-47D breast = system: T-47D breast
DU-145 prostate = system: DU-145 prostate
HT29 colon = system: HT29 colon
HOP-62 NSCLC = system: HOP-62 NSCLC

O=C(N/N=C/c1ccc([N+](=O)[O-])s1)c1[nH]c2ccc(Br)cc2c1-c1ccccc1
GI50 (OVCAR-3 ovarian): 1060 nM | TGI (OVCAR-3 ovarian): 9860 nM | GI50 (LOX IMVI melanoma): 487 nM | TGI (LOX IMVI melanoma): 12700 nM | GI50 (HCT-15 colon): 706 nM | TGI (HCT-15 colon): 2720 nM | GI50 (TK-10 renal): 2970 nM | TGI (TK-10 renal): > 49800 nM | GI50 (RPMI-8226 leukemia): 912 nM | TGI (RPMI-8226 leukemia): 8560 nM | GI50 (K-562 leukemia): 365 nM | TGI (K-562 leukemia): 14200 nM | GI50 (A549 NSCLC): 1070 nM | TGI (A549 NSCLC): 12900 nM | GI50 (MCF7 breast): 741 nM | TGI (MCF7 breast): > 32400 nM | GI50 (OVCAR-8 ovarian): 756 nM | TGI (OVCAR-8 ovarian): 2080 nM | GI50 (OVCAR-4 ovarian): 1630 nM | TGI (OVCAR-4 ovarian): > 46900 nM | GI50 (M14 melanoma): 627 nM | TGI (M14 melanoma): 2030 nM | GI50 (BT-549 breast): 747 nM | TGI (BT-549 breast): 2670 nM | GI50 (HS 578T breast): 943 nM | TGI (HS 578T breast): 12900 nM | GI50 (COLO 205 colon): 578 nM | TGI (COLO 205 colon): 1140 nM | GI50 (NCI/ADR-RES ovarian): 458 nM | GI50 (A498 renal): > 34700 nM | TGI (A498 renal): > 92100 nM | GI50 (SR leukemia): 391 nM | TGI (SR leukemia): 10600 nM | GI50 (SW-620 colon): 768 nM | TGI (SW-620 colon): 8530 nM | GI50 (SF-268 CNS): 1840 nM | TGI (SF-268 CNS): > 100000 nM | GI50 (MDA-MB-435): 323 nM | TGI (MDA-MB-435): 918 nM | GI50 (CCRF-CEM leukemia): 1220 nM | TGI (CCRF-CEM leukemia): 99600 nM | GI50 (OVCAR-5 ovarian): 1140 nM | TGI (OVCAR-5 ovarian): 27200 nM | GI50 (MALME-3M melanoma): 800 nM | TGI (MALME-3M melanoma): 4500 nM | GI50 (SF-295 CNS): 596 nM | TGI (SF-295 CNS): 12200 nM | GI50 (HCT-116 colon): 816 nM | TGI (HCT-116 colon): 4700 nM | GI50 (SK-MEL-28 melanoma): 995 nM | TGI (SK-MEL-28 melanoma): > 34200 nM | GI50 (HCC-2998 colon): 787 nM | TGI (HCC-2998 colon): 2120 nM | GI50 (SNB-19 CNS): 961 nM | TGI (SNB-19 CNS): > 32300 nM | GI50 (UACC-257 melanoma): 916 nM | TGI (UACC-257 melanoma): 9150 nM | GI50 (CAKI-1 renal): 1510 nM | TGI (CAKI-1 renal): > 26100 nM | GI50 (SNB-75 CNS): 320 nM | TGI (SNB-75 CNS): 5710 nM | GI50 (SN12C renal): 885 nM | TGI (SN12C renal): 3130 nM | GI50 (ACHN renal): 883 nM | GI50 (IGROV1 ovarian): 932 nM | TGI (IGROV1 ovarian): > 50900 nM | GI50 (NCI-H226 lung): 716 nM | TGI (NCI-H226 lung): 2780 nM | GI50 (MDA-MB-231 breast): 881 nM | TGI (MDA-MB-231 breast): 2850 nM | GI50 (NCI-H460 lung): 820 nM | TGI (NCI-H460 lung): 3030 nM | GI50 (NCI-H522 lung): 115 nM | TGI (NCI-H522 lung): 535 nM | GI50 (RXF 393 renal): 354 nM | TGI (RXF 393 renal): 9220 nM | GI50 (786-0 renal): 1300 nM | TGI (786-0 renal): 19200 nM | GI50 (SK-MEL-5 melanoma): 605 nM | TGI (SK-MEL-5 melanoma): 1290 nM | GI50 (PC-3 prostate): 967 nM | GI50 (HOP-92 NSCLC): 851 nM | TGI (HOP-92 NSCLC): 4610 nM | GI50 (EKVX NSCLC): 1720 nM | TGI (EKVX NSCLC): 8290 nM | GI50 (MOLT-4 leukemia): 1070 nM | TGI (MOLT-4 leukemia): 16600 nM | GI50 (KM12 colon): 1080 nM | TGI (KM12 colon): 5470 nM | GI50 (U251 CNS): 716 nM | TGI (U251 CNS): 3030 nM | GI50 (UACC-62 melanoma): 401 nM | TGI (UACC-62 melanoma): 3980 nM | GI50 (SF-539 CNS): 515 nM | TGI (SF-539 CNS): 1510 nM | GI50 (SK-OV-3 ovarian): 1690 nM | TGI (SK-OV-3 ovarian): > 53500 nM | GI50 (SK-MEL-2 melanoma): 769 nM | TGI (SK-MEL-2 melanoma): 2540 nM | GI50 (UO-31 renal): 1040 nM | TGI (UO-31 renal): > 33400 nM | GI50 (NCI-H23 lung): 1180 nM | TGI (NCI-H23 lung): 18800 nM | GI50 (HL-60(TB) leukemia): 723 nM | TGI (HL-60(TB) leukemia): 1940 nM | GI50 (T-47D breast): 2350 nM | TGI (T-47D breast): > 91300 nM | GI50 (DU-145 prostate): 1140 nM | TGI (DU-145 prostate): > 55400 nM | GI50 (HT29 colon): 858 nM | TGI (HT29 colon): 2800 nM | GI50 (HOP-62 NSCLC): 1070 nM | TGI (HOP-62 NSCLC): 6970 nM
